Measurements as given in patent US10047076B2, “Halogen-substituted compounds” (BAYER CROPSCIENCE AKTIENGESELLSCHAFT, priority 2014, dated 2018).

Key:
[1] = log P determination by HPLC on reversed-phase column (C18), EEC Directive 79/831 Annex V.A8, acidic (formic acid); type: physicochemical; conditions: HPLC method a), acetonitrile/water with formic acid
Description: ^1 The stated mass is the peak of the isotope pattern of the [M+H]^+ ion of the highest intensity; if the [M-H]^- ion was detected, the stated mass is identified with ^2. ^2 The stated mass is the peak of the isotope pattern of the [M-H]^- ion of the highest intensity. ^a) Note regarding the determination of the log P values and mass detection: The determination of the given log P values was carried out in accordance with EEC Directive 79/831 Annex V.A8 by HPLC (High Performance Liquid Chromatography) on a reversed-phase column (C18). […] Mass detection is effected by means of an […] system. ^b) Note regarding the determination of the retention time and mass detection: The stated retention times were determined on a reversed-phase column (C18) Shimadzu LCMS 2020; 50*3.0 Shimadzu shim-pack XR-ODS 2.2 micron; mobile phase A: water (0.05% TFA); mobile phase B: acetonitrile; linear gradient from 5% acetonitrile to 95% acetonitrile in 6.00 min, then 95% acetonitrile for a further 1.1 min; oven temperature 40° C.; flow rate: 1.0 ml/min. ^c) Note regarding the determination of the retention time and mass detection: Instrument: Waters ACQUITY SQD UPLC system; column. Waters Acquity UPLC HSS T3 1.8μ 50×1 mm; mobile phase A: 1 l of water+0.25 ml of 99% strength formic acid, mobile phase B: 1 l of acetonitrile+0.25 ml of 99% strength formic acid; gradient: 0.0 min 90% A→1.2 min 5% A→2.0 min 5% A oven: 50° C.; flow rate: 0.40 ml/min; UV detection: 208-400 nm. ^d) Note regarding the determination of the retention time and mass detection: […] The determination of the given log P values was carried out in accordance with EEC Directive 79/831 Annex V.A8 by HPLC (High Performance Liquid Chromatography) on a reversed-phase column (C18). […] Mass detection is effected by means of an […] system.

Spodoptera frugiperda = Spodoptera frugiperda spray test; type: in vivo; conditions: caterpillars on maize leaf discs, after 7 days
Text: (§1) Solvent: 78.0 parts by weight of acetone

Tetranychus urticae = Tetranychus urticae spray test, OP-resistant (bean leaf discs); type: in vivo; conditions: 500 g/ha, after 6 days
Description: as §1
After 6 days, the efficacy in % is determined.

Phaedon cochleariae = Phaedon cochleariae spray test; conditions: larvae on Chinese cabbage leaf discs, after 7 days
Boophilus microplus = Boophilus microplus injection test; type: in vivo; conditions: 20 μg/animal, engorged adult female ticks, after 7 days
Description: (§2) Solvent: dimethyl sulphoxide
1 μl of the active compound solution is injected into the abdomen of 5 engorged adult female cattle ticks (Boophilus microplus). The animals are transferred into dishes and kept in a climate-controlled room.
Efficacy is assessed after 7 days by laying of fertile eggs. Eggs which are not visibly fertile are stored in a climate-controlled cabinet until the larvae hatch after about 42 days. An efficacy of 100% means that none of the ticks has laid any fertile eggs; 0% means that all the eggs are fertile.

Ctenocephalides felis = Ctenocephalides felis oral test; type: in vivo; conditions: 100 ppm in citrated cattle blood, after 2 days
Text: as §2
Dilution with citrated cattle blood gives the desired concentration.
About 20 unfed adult cat fleas (Ctenocephalides felis) are placed into a chamber which is closed at the top and bottom with gauze. A metal cylinder whose bottom end is closed with parafilm is placed onto the chamber. The cylinder contains the blood/active compound preparation, which can be imbibed by the fleas through the parafilm membrane.

Lucilia cuprina = Lucilia cuprina test; type: in vivo; conditions: 100 ppm, L1 larvae, after 2 days
Description: as §2
About 20 L1 larvae of the Australian sheep blowfly (Lucilia cuprina) are transferred into a test vessel containing minced horsemeat and the active compound preparation of the desired concentration.
After 2 days, the kill in % is determined.

Musca domestica = Musca domestica test; type: in vivo; conditions: 100 ppm, adult houseflies, after 2 days
Text: as §2
Vessels containing a sponge treated with sugar solution and the active compound preparation of the desired concentration are populated with 10 adult houseflies (Musca domestica).

Rhipicephalus sanguineus = Rhipicephalus sanguineus in vitro contact test with adult brown dog ticks; type: in vivo; conditions: after 48 h, adult ticks dead or moribund
Description: For the coating of the test tubes, 9 mg of active compound are first dissolved in 1 ml of acetone p.a. and then diluted to the desired concentration with acetone p.a. 250 μl of the solution are distributed homogeneously on the inner walls and the base of a 25 ml test tube by turning and rocking on an orbital shaker (rocking rotation at 30 rpm for 2 h). With 900 ppm active compound solution and internal surface 44.7 cm^2, given homogeneous distribution, an area-based dose of 5 μg/cm^2 is achieved.
After the solvent has evaporated off, the tubes are populated with 5-10 adult dog ticks (Rhipicephalus sanguineus), sealed with a perforated plastic lid and incubated in a horizontal position in the dark at room temperature and ambient humidity. After 48 h, efficacy is determined. To this end, the ticks are knocked to the floor of the tube and incubated on a hotplate at 45-50° C. for not more than 5 min. Ticks which remain motionless on the floor or move in such an uncoordinated manner that they are unable to deliberately avoid the heat by climbing upwards are considered to be dead or moribund.
An efficacy of 100% means that all the ticks were dead or moribund. 0% efficacy means that none of the ticks had been harmed.

[2] = application rate 5 μg/cm^2 (500 g/ha)

| Compound | logP [1] | efficacy (Spodoptera frugiperda; 500 g/ha) [%] | efficacy (Tetranychus urticae) [%] | efficacy (Phaedon cochleariae; 500 g/ha) [%] | efficacy (laying of fertile eggs) (Boophilus microplus) [%] | efficacy (kill in %) (Ctenocephalides felis) [%] | efficacy (kill in %) (Lucilia cuprina) [%] | efficacy (kill in %) (Musca domestica) [%] | efficacy (Spodoptera frugiperda; 100 g/ha) [%] | efficacy (Phaedon cochleariae; 100 g/ha) [%] | efficacy (Rhipicephalus sanguineus; [2]) [%] | efficacy (Rhipicephalus sanguineus; application rate 1 μg/cm^2 (100 g/ha)) [%] |
| --- | --- | --- | --- | --- | --- | --- | --- | --- | --- | --- | --- | --- |
| Cn1nc(-c2c(C(F)(F)F)c(C(F)(F)C(F)(F)F)nn2C)nc1-c1ccc(Cl)c(C(=O)NCC(F)(F)F)c1 [Ibh-3] | 3.99 | 100 | 90 | 100 | – | – | – | – | – | – | – | – |
| CCn1nc(-c2ccc(Cl)c(C(=O)NC3CC3)c2)nc1-c1c(C(F)(F)F)c(C(F)(F)C(F)(F)F)nn1C [Ibg-5] | 4.09 | – | 90 | 100 | – | – | – | – | – | – | – | – |
| Cn1nc(C(F)(F)C(F)(F)F)c(C(F)(F)F)c1-c1noc(-c2ccc(Cl)c(C(=O)NC3(C#N)CC3)c2)n1 [Ibe-4] | 4.01 | 100 | 90 | 100 | 100 | 100 | 100 | 100 | – | – | – | – |
| CCn1nc(-c2c(C(F)(F)F)c(C(F)(F)C(F)(F)F)nn2C)nc1-c1ccc(Cl)c(C(=O)NC2CC2)c1 [Ibh-4] | 3.99 | – | 100 | 100 | 100 | 90 | 100 | 90 | – | – | – | – |
| Cn1nc(C(F)(F)C(F)(F)F)c(C(F)(F)F)c1-c1ccc(-c2ccc(Cl)c(C(=O)NC3(C#N)CC3)c2)o1 [Iaa-1] | 4.08 | – | – | – | 100 | 100 | 100 | 100 | 100 | 100 | – | – |
| Cn1nc(C(F)(F)C(F)(F)F)c(C(F)(F)F)c1-c1cc(-c2ccc(Cl)c(C(=O)NC3CSC3)c2)no1 [Iap-4] | 4.37 | 80 | 90 | 100 | 100 | 100 | 100 | – | – | – | 100 | – |
| Cn1nc(C(F)(F)C(F)(F)F)c(C(F)(F)F)c1-c1cc(-c2ccc(Cl)c(C(=O)NCC(F)(F)F)c2)no1 [Iap-2] | 4.42 | – | – | – | 100 | 100 | 100 | 100 | 100 | 100 | – | 80 |
| Cn1nc(C(F)(F)C(F)(F)F)c(C(F)(F)F)c1-c1nc(-c2ccc(Cl)c(C(=O)NC3(C#N)CC3)c2)no1 [Ibf-2] | 4.14 | 100 | – | 100 | 100 | 100 | 100 | 100 | – | – | 80 | – |
| Cn1nc(C(F)(F)C(F)(F)F)c(C(F)(F)F)c1-c1nc(-c2ccc(Cl)c(C(=O)NC3CC3)c2)no1 [Ibf-3] | 4.26 | 100 | – | 100 | 100 | 100 | 100 | 80 | – | – | – | – |
| Cn1nc(C(F)(F)C(F)(F)F)c(C(F)(F)F)c1-c1cc(-c2ccc(Cl)c(C(=O)NC3(C(F)(F)F)CC3)c2)no1 [Iap-5] | 4.55 | – | – | – | 100 | 100 | 100 | 100 | – | 100 | – | – |
